Results taken from the SangsterLogP compilation.

First: CCN(CC)CC(=O)NC1COc2ccccc21 (stereo not drawn)
Second: CCN(CC)CC(=O)NC1COc2ccc(C)cc21 (stereo not drawn)
The logP of the first is lower: 2.2 for the first, 2.69 for the second.

Going from `CCCCN(CCCC)CC(=O)NC1COc2ccccc21` (stereo not drawn) to `CCCCN(CCCC)CC(=O)NC1COc2ccc(C)cc21` (stereo not drawn), the logP rises from 4.15 to 4.43.

Going from `Cc1ccc2c(c1)C(NC(=O)CN1CCCC1)CO2` (stereo not drawn) to `Cc1ccc2c(c1)C(NC(=O)CN1CCCCC1)CO2` (stereo not drawn), the logP rises from 2.24 to 2.78.

First: O=C(CN1CCCCC1)NC1COc2ccccc21 (stereo not drawn)
Second: O=C(CN1CCCC1)NC1COc2ccccc21 (stereo not drawn)
The logP of the first is higher: 2.3 for the first, 1.76 for the second.

First: COc1ccc2c(c1)OCC2NC(=O)CN1CCOCC1 (stereo not drawn)
Second: COc1ccc2c(c1)OCC2NC(=O)CN1CCCCC1 (stereo not drawn)
The logP of the first is lower: 0.92 for the first, 2.41 for the second.

First: O=C(CN1CCCCC1)NC1COc2ccc(Cl)cc21 (stereo not drawn)
Second: O=C(CN1CCCC1)NC1COc2ccc(Cl)cc21 (stereo not drawn)
The logP of the first is higher: 3.01 for the first, 2.47 for the second.

`Cc1ccc2c(c1)C(NC(=O)CN1CCOCC1)CO2` (stereo not drawn) and `O=C(CN1CCOCC1)NC1COc2ccc(Cl)cc21` (stereo not drawn) are within 0.2 log units of each other in logP: 1.38 for the first, 1.55 for the second.

Compared with `CCCCN(CCCC)CC(=O)NC1COc2cc(OC)ccc21` (stereo not drawn), `CCCCN(CCCC)CC(=O)NC1COc2ccc(Cl)cc21` (stereo not drawn) is higher in logP: 4.24 for the first, 4.44 for the second.

First: O=C(CN1CCOCC1)NC1COc2ccccc21 (stereo not drawn)
Second: CCN(CC)CC(=O)NC1COc2ccc(Cl)cc21 (stereo not drawn)
The logP of the first is lower: 0.81 for the first, 2.88 for the second.
